Experimental findings from patent publication US20240190874A1, “SMALL MOLECULE DEGRADERS OF ANDROGEN RECEPTOR” (THE REGENTS OF THE UNIVERSITY OF MICHIGAN, priority 2021, published 2024) are described below.

Holding throughout (assay type): cell-based
One experiment has as its system LNCaP cells. The experiment can be described thus: Cellular potency (IC50) in LNCaP cells. As to conditions: Homo sapiens, LNCaP. On the procedure:
(§1) Biological Assays. LNCaP and VCaP cells used were purchased from American Type Culture Collection (ATCC). LNCaP were grown in RPMI 1640 (Invitrogen) and VCaP cells were grown in DMEM with Glutamax (Invitrogen). All of the cells were supplemented with 10% fetal bovine serum (Invitrogen) at 37° C. in a humidified 5% CO2 incubator.

The target of the next experiment is T1, AR (Homo sapiens, UniProt P10275).
T1 construct: Degradation of AR; Cellular potency; host or cells: VCaP cells
T1 sequence (P10275 1-920): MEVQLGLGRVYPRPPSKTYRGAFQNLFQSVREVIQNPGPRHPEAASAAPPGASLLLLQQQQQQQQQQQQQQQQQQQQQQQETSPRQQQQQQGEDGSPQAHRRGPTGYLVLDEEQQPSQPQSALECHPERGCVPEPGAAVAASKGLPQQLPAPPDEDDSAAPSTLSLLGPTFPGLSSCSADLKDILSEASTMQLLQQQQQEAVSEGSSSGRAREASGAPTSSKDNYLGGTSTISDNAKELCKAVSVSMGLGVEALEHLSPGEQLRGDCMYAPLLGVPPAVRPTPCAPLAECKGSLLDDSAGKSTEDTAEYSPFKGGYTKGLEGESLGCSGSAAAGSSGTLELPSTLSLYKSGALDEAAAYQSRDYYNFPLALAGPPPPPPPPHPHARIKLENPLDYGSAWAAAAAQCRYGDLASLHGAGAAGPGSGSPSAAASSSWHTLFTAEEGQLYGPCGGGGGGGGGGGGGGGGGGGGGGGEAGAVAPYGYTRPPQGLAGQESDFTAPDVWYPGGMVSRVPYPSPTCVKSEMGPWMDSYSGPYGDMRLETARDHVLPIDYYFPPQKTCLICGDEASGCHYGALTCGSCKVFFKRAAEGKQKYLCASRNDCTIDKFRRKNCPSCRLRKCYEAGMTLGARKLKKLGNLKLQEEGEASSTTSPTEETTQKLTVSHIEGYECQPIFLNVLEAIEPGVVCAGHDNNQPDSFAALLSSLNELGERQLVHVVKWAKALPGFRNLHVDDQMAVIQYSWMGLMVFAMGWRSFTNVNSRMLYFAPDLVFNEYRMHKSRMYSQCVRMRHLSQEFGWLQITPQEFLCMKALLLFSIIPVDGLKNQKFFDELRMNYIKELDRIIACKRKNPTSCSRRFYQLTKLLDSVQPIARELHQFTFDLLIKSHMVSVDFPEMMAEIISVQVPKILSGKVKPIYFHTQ
The experiment can be described thus: Degradation of AR in VCaP cells. As to conditions: VCaP cells; for Dmax: VCaP. As for the experimental part: as §1

The test system of another experiment is VCaP cells. The experiment can be described thus: Cellular potency (IC50) in VCaP cells. As to conditions: Homo sapiens, VCaP. On the procedure: as §1

On to `C[C@H]1CC2(CCN(c3ccc(OC4CN(C5CCN(c6ccc7c(c6)C(=O)N(C6CCC(=O)NC6=O)C7=O)CC5)C4)cn3)CC2)CN1c1ccc(C#N)c(Cl)c1` (some centres unmarked) [compound 70], for which, in the experiment with LNCaP cells, the IC50 (commonly the point on the concentration scale where inhibition reaches its midpoint) is less than 1000 nM. Besides, on AR, the DC50 (in general, the concentration at which degradation of the target reaches its halfway point) was less than 100 nM and the Dmax (as a rule, the greatest extent of degradation seen) lay within 50 to 70%. Moreover, the IC50 in the experiment on VCaP cells is less than 1000 nM.
For the molecule `C[C@H]1CC2(CCN(c3ccc(OC4CN(C5CN(c6ccc7c(c6)C(=O)N(C6CCC(=O)NC6=O)C7=O)C5)C4)nc3)CC2)CN1c1ccc(C#N)c(Cl)c1` (some centres unmarked) [compound 71], the IC50 in the experiment on LNCaP cells and in the experiment with VCaP cells was less than 1000 nM in each case. The DC50 on AR was less than 100 nM. Besides, the Dmax on AR lay in the range of 50 to 70%.
Molecule `C[C@H]1CC2(CCN(c3ccc(OC4CN(C5CCN(c6ccc7c(c6)C(=O)N(C6CCC(=O)NC6=O)C7=O)CC5)C4)nc3)CC2)CN1c1ccc(C#N)c(Cl)c1` (some centres unmarked) [compound 72] displayed an IC50 in the experiment on LNCaP cells of less than 1000 nM. Further, on AR, the DC50 is less than 100 nM and the Dmax lay within 50 to 70%. In the experiment on VCaP cells, this molecule had an IC50 of less than 1000 nM.
For `C[C@H]1CC2(CCN(c3ccc(OC4CN(C5CN(c6ccc7c(c6)C(=O)N(C6CCC(=O)NC6=O)C7=O)C5)C4)nn3)CC2)CN1c1ccc(C#N)c(Cl)c1` (some centres unmarked) [compound 73], the IC50 in the experiment with LNCaP cells and with VCaP cells was less than 1000 nM each time. Besides, the DC50 on AR is less than 100 nM. The Dmax at AR was in the range of 50 to 70%.
Molecule `C[C@H]1CC2(CCN(c3ccc(OC4CN(C5CCN(c6ccc7c(c6)C(=O)N(C6CCC(=O)NC6=O)C7=O)CC5)C4)nn3)CC2)CN1c1ccc(C#N)c(Cl)c1` (some centres unmarked) [compound 74] registered an IC50 with LNCaP cells of less than 1000 nM. On AR, this molecule returned a DC50 of less than 100 nM and a Dmax of 50 to 70%. Also, in the experiment with VCaP cells, the IC50 is less than 1000 nM.
`C[C@H]1CC2(CCN(c3cnc(N4CCN(CC5CN(c6ccc7c(c6)C(=O)N(C6CCC(=O)NC6=O)C7=O)C5)CC4)nc3)CC2)CN1c1ccc(C#N)c(Cl)c1` (some centres unmarked) [compound 82] gave an IC50 with LNCaP cells of less than 10 nM. For the same molecule, at AR, the DC50 is less than 1 nM and the Dmax was greater than 90%. In the experiment with VCaP cells, the half-inhibitory concentration (IC50) is less than 10 nM.
In the experiment with LNCaP cells, `C[C@H]1CC2(CCN(c3cnc(N4CCN(CC5CCN(c6ccc7c(c6)C(=O)N(C6CCC(=O)NC6=O)C7=O)CC5)CC4)nc3)CC2)CN1c1ccc(C#N)c(Cl)c1` (some centres unmarked) [compound 83] gave an IC50 of less than 10 nM. At AR, the DC50 was less than 1 nM and the Dmax is greater than 90%. This molecule yielded an IC50 with VCaP cells of less than 10 nM.
Consider `C[C@H]1CC2(CCN(c3ccc(N4CCC(OC5CN(c6ccc7c(c6)C(=O)N(C6CCC(=O)NC6=O)C7=O)C5)CC4)cc3)CC2)CN1c1ccc(C#N)c(Cl)c1` (some centres unmarked) [compound 90], for which the IC50 in the experiment on LNCaP cells and in the experiment on VCaP cells was less than 10 nM throughout. On AR, this molecule displayed a DC50 of less than 1 nM. The Dmax on AR is greater than 90%.
As to `C[C@H]1CC2(CCN(c3ccc(N4CCC(OC5CN(c6ccc7c(c6)C(=O)N(C6CCC(=O)NC6=O)C7=O)C5)CC4)nc3)CC2)CN1c1ccc(C#N)c(Cl)c1` (some centres unmarked) [compound 91], the IC50 with LNCaP cells and with VCaP cells was less than 10 nM throughout. Also, the DC50 at AR is less than 1 nM. Besides, the Dmax at AR is greater than 90%.
`C[C@H]1CC2(CCN(c3ccc(N4CCC(OC5CN(c6ccc7c(c6)C(=O)N(C6CCC(=O)NC6=O)C7=O)C5)CC4)cn3)CC2)CN1c1ccc(C#N)c(Cl)c1` (some centres unmarked) [compound 92] yielded an IC50 in the experiment on LNCaP cells of less than 10 nM. Further, at AR, the DC50 is less than 1 nM and the Dmax was greater than 90%. In addition, the IC50 in the experiment with VCaP cells is less than 10 nM.
In the case of `C[C@H]1CC2(CCN(c3ccc(N4CCC(N(C)C5CN(c6ccc7c(c6)C(=O)N(C6CCC(=O)NC6=O)C7=O)C5)CC4)cc3)CC2)CN1c1ccc(C#N)c(Cl)c1` (stereo partly drawn) [compound 119, 2-chloro-4-((3S)-8-(4-(4-((1-(2-(2,6-dioxopiperidin-3-yl)-1,3-dioxoisoindolin-5-yl)azetidin-3-yl)(methyl)amino)piperidin-1-yl)phenyl)-3-methyl-2,8-diazaspiro[4.5]decan-2-yl)benzonitrile], the IC50 in the experiment with LNCaP cells and in the experiment with VCaP cells was less than 10 nM each time. The same molecule had a Dmax on AR greater than 90%.
`C[C@H]1CC2(CCN(c3ccc(N4CCC(NC5CN(c6ccc7c(c6)C(=O)N(C6CCC(=O)NC6=O)C7=O)C5)CC4)cc3)CC2)CN1c1ccc(C#N)c(Cl)c1` (some centres unmarked) [compound 120] registered an IC50 in the experiment on LNCaP cells of less than 10 nM. At AR, this molecule gave a DC50 of less than 1 nM and a Dmax greater than 90%. The molecule further gave an IC50 with VCaP cells of less than 10 nM.
For the molecule `C[C@H]1CC2(CCN(c3ccc(N4CC(N(C)C5CN(c6ccc7c(c6)C(=O)N(C6CCC(=O)NC6=O)C7=O)C5)C4)cc3)CC2)CN1c1ccc(C#N)c(Cl)c1` (some centres unmarked) [compound 121], the IC50 in the experiment with LNCaP cells and in the experiment on VCaP cells was less than 100 nM in each case. The DC50 on AR is less than 100 nM. Further, the Dmax on AR fell in the range of 70 to 90%.
In turn, `C[C@H]1CC2(CCN(c3ccc(N4CCC(N(C)C5CN(c6ccc7c(c6)C(=O)N(C6CCC(=O)NC6=O)C7=O)C5)CC4)cn3)CC2)CN1c1ccc(C#N)c(Cl)c1` (some centres unmarked) [compound 123] displayed an IC50 in the experiment on LNCaP cells of less than 10 nM. Further, at AR, the DC50 was less than 1 nM and the Dmax was greater than 90%. Also, in the experiment on VCaP cells, the IC50 was less than 10 nM.
The molecule `C[C@H]1CC2(CCN(c3ccc(N4CCC(N(C)C5CN(c6ccc7c(c6)C(=O)N(C6CCC(=O)NC6=O)C7=O)C5)CC4)nc3)CC2)CN1c1ccc(C#N)c(Cl)c1` (some centres unmarked) [compound 124] registered an IC50 in the experiment on LNCaP cells of less than 100 nM. Besides, at AR, the DC50 is less than 10 nM and the Dmax lay in the range of 70 to 90%. For the same molecule, the IC50 in the experiment on VCaP cells was less than 100 nM.
`C[C@H]1CC2(CCN(c3ccc(N4CCC(N(C)C5CN(c6ccc7c(c6)C(=O)N(C6CCC(=O)NC6=O)C7=O)C5)CC4)nn3)CC2)CN1c1ccc(C#N)c(Cl)c1` (some centres unmarked) [compound 125] yielded an IC50 in the experiment on LNCaP cells of less than 10 nM. On AR, the DC50 is less than 10 nM and the Dmax is greater than 90%. The molecule also came in with an IC50 in the experiment on VCaP cells of less than 10 nM.
With `C[C@H]1CC2(CCN(c3ccc(OC4CCN(C5CN(c6cc7c(cc6F)C(=O)N(C6CCC(=O)NC6=O)C7=O)C5)CC4)cc3)CC2)CN1c1ccc(C#N)c(Cl)c1` (some centres unmarked) [compound 131], the IC50 with LNCaP cells is less than 10 nM. Further, at AR, the DC50 was less than 1 nM and the Dmax is greater than 90%. In addition, the IC50 in the experiment on VCaP cells was less than 10 nM.
With `C[C@H]1CC2(CCN(c3ccc(OC4CCN(C5CN(c6cc7c(cc6F)C(=O)N(C6CCC(=O)NC6=O)C7=O)C5)CC4)cn3)CC2)CN1c1ccc(C#N)c(Cl)c1` (some centres unmarked) [compound 132], the IC50 in the experiment on LNCaP cells is less than 10 nM. In addition, on AR, the DC50 was less than 1 nM and the Dmax is greater than 90%. Moreover, in the experiment on VCaP cells, the IC50 was less than 10 nM.
`C[C@H]1CC2(CCN(c3ccc(OC4CCN(C5CN(c6cc7c(cc6F)C(=O)N(C6CCC(=O)NC6=O)C7=O)C5)CC4)nc3)CC2)CN1c1ccc(C#N)c(Cl)c1` (some centres unmarked) [compound 133] yielded an IC50 in the experiment on LNCaP cells of less than 10 nM. At AR, this molecule yielded a DC50 of less than 1 nM and a Dmax greater than 90%. The IC50 with VCaP cells was less than 10 nM.
For `C[C@H]1CC2(CCN(c3ccc(OC4CCN(C5CN(c6cc7c(cc6F)C(=O)N(C6CCC(=O)NC6=O)C7=O)C5)CC4)nn3)CC2)CN1c1ccc(C#N)c(Cl)c1` (some centres unmarked) [compound 134], the IC50 in the experiment on LNCaP cells was less than 10 nM. On AR, this molecule had a DC50 of less than 1 nM and a Dmax greater than 90%. For the same molecule, the IC50 in the experiment with VCaP cells was less than 10 nM.
For the molecule `C[C@H]1CC2(CCN(c3ccc(C(=O)N4CCN(C5CN(c6ccc7c(c6)C(=O)N(C6CCC(=O)NC6=O)C7=O)C5)CC4)s3)CC2)CN1c1ccc(C#N)c(Cl)c1` (some centres unmarked) [compound 135], the IC50 in the experiment on LNCaP cells and in the experiment on VCaP cells was less than 100 nM each time. The molecule also yielded a DC50 at AR of less than 10 nM. This molecule gave a Dmax on AR of 70 to 90%.
